Source: patent US10730857B2, “Benzocyanine compounds” (Pierce Biotechnology, Inc., priority 2011, dated 2020)
Entries after “also recorded” stand apart in the source; their conditions may differ.

Columns and labels:
[1] = Absorbance/emission spectral properties and fluorescence intensity of the dyes; format: physicochemical; settings: second property table of Example 6; NHS ester forms
Protocol: Emission/excitation profiles for inventive and commercial compounds was determined by reconstituting the compounds in DMF at 10 mg/ml and then diluting in PBS buffer pH 7.2 to 10 μg/ml.

[2] = system: rabbit IgG immunoglobulin; test: Plate functional assay of dye-GAR conjugates; format: binding; settings: FIG. 14 summary Raw Fluorescence Intensity
Protocol: Performance of the dye-GAM conjugates, dye-GAR conjugates, and dye-SA conjugates was evaluated in a functional assay. Wells of a 96 white opaque plate or black clear-bottom plate were coated with target proteins mouse IgG immunoglobulin, rabbit IgG immunoglobulin, or biotinylated bovine serum albumin (BBSA). One hundred μl mouse or rabbit IgG, or BBSA at a concentration of 10 μg/ml was applied to the corresponding wells in columns 1 and 2. The target proteins were serially diluted 1:1 from the wells in columns 2 to 11 using 100 μl PBS. One hundred μl of the samples from the wells in column 11 were discarded. One hundred μl PBS was added to the wells in column 12. The plates were incubated overnight at 4° C. and then blocked 2×200 μl with Thermo Scientific SuperBlock® Blocking Buffer. The coated plates were washed 2×200 μl with PBS-Tween and 1×200 μl with PBS. Based on the calculated concentrations, conjugates were diluted 1:250 in PBS, added to the corresponding plates (100 μl/well) and then incubated for one hour in the dark. The plates were washed with 2×200 μl with PBS-Tween and 1×200 μl with PBS and filled with PBS buffer (100 μl/well) prior to scanning the white opaque plates on Tecan Safire using 679 nmexcitation/702 nmemission or scanning the black clear-bottom plates on LiCor Odyssey at 700 channel, to detect fluorescence intensity.

lamin A in U20S cells = test: Immunofluorescence detection of lamin A in U20S cells (FIG. 20A-C and repeat); format: cell-based; settings: for S/B 2.5 X: 2.5 X molar excess
Protocol: In the indicated experiments, the inventive compounds and commercial dye were evaluated for immunofluorescence in a cell based assay using the following protocol. Frozen U20S cell plates which were stored at −80° C. were thawed for 45 minutes at 50° C. Storage buffer (PBS) was removed and the cells were permeabilized for 15 minutes with 0.1% Triton-X100 in 1×PBS buffer (100 μl/well). The cell plate was blocked for 60 minutes in 2% BSA/PBS-0.1% Triton-X100. Primary antibody, either rat anti-Grp94 (5 μg/ml), mouse anti-lamin A (10 μg/ml), or rabbit anti-lamin B1 (10 μg/ml), diluted in 2% BSA/PBS-0.1% Triton-X100 was added to the plate and incubated for 1 hour at room temperature. Control wells contained only 2% BSA/PBS-0.1% Triton-X100 blocker. After incubation, the antibody solution was removed from the plate and the plate was washed three times with 100 μl/well of PBS-0.5% Tween-20 and one time with 100 μl/well PBS. GARat, GAM, or GAR secondary antibodies labeled with various molar excess of the inventive or commercial compound were diluted to 4 μg/ml in PBS and incubated for 1 hour at room temperature. The plates were washed three times with 100 μl/well of PBST and once with 100 μl/well PBS, and Hoechst (diluted to 0.1 μg/ml in PBS) was added to each well (100 μl/well). The plates were scanned on ArrayScan Plate Reader or ToxInsight Instrument.

[3] = In vivo imaging with dye-labeled anti-CEA antibody; parameters: species or system nu/nu mice; settings: dye conjugated to mouse anti-CEA antibody; i.v.; predicted results
Protocol: The inventive compounds are used for in vivo imaging as described in J. Gastrointest Surg (2008) 12:1938-1950. Briefly, human pancreatic cell lines are maintained in media supplemented with penicillin/streptomycin at 37° C. with 5% CO2. Mouse anti-CEA antibody and Control Mouse IgG (in PBS with 0.20% sodium azide) are conjugated to V08-15173. The dye is reconstituted at 10 mg/ml in DMF and then added to the antibody at a 10 molar excess. The reaction is carried out for one hour at room temperature. The samples are then dialyzed against 3×2 L of PBS. The cell lines are plated in 96-well plates at 5×10^4 cells per well. After 48 hours culture in appropriate media, the cells are incubated with 1 μg of V08-15173 labeled anti-CEA antibody or V08-15173-labeled control mouse IgG for four hours at 37° C. The cells are then washed three times with PBS and then imaged with an inverted Nikon De-485 microscope and Spot camera RD.
Surgical procedures and intravital imaging are performed with the animals anesthesized by intramuscular injection of 0.02 ml of 50% ketamine, 38% xylazine and 12 acepromazine maleate. Human pancreatic and colorectal cancer cell lines are harvested by trypsinization and washed twice with serum free medium […]. Cells (1×10^6 in 100 μl of serum-free media) are injected subcutaneously within 30 minutes of harvesting over the right flank in female nu/nu mice between 4-6 weeks of age. Subcutaneous tumors are allowed to grow for 7-14 days until they reached diameter of 1-2 mm prior to the delivery of conjugated antibody. For ASPC-1 implants, the cells are harvested by trypsinization and washed 3× in serum-free media. […]. The cells are resuspended in serum-free media at 5×10^6/ml. A volume of 200 μl of the cell suspension is then injected directly into the peritoneal cavity within 30 minutes of harvesting.
For antibody delivery, one to two weeks after subcutaneous, orthotopic, or intraperitoneal tumor implantation, animals are given intravenous (i.v.) injection of either conjugated anti-CEA or conjugated control IgG antibody diluted in PBS to a final volume of 100 μl. All i.v. injections are done via the tail vein. For the dose-response experiment, the antibody dose is 75 μg. For the in vivo time course, the animals are anesthesized and imaged at 30 min, 1, 2, 6, 24 hours and 8 and 15 days after systemic antibody delivery.
The inventive compounds are used for in vivo imaging as described in J. Gastrointest Surg (2008) 12:1938-1950. Briefly, human pancreatic cell lines are maintained in media supplemented with penicillin/streptomycin at 37° C. with 5% CO2. Mouse anti-CEA antibody and Control Mouse IgG (in PBS with 0.20% sodium azide) are conjugated to 779 Compound 1. […]

What does the source list for `COCCOCCOCCOCC[N+]1=C(/C=C/C=C/C=C2/N(CCOCCOCCOCCOCCC(=O)ON3C(=O)CCC3=O)c3ccc4c(S(=O)(=O)[O-])cc(S(=O)(=O)O)cc4c3C2(C)CCOCCOCCOCCOC)C(C)(CCOCCOCCOCCOC)c2c1ccc1c(S(=O)(=O)O)cc(S(=O)(=O)O)cc21` (stereo not shown) [Compound V08-15173]?
Em [1]: 706 nm; Ex [1]: 684 nm; quenching at 1000 ng/well at 25× (in words) [2]: no apparent quenching; S/B 2.5 X (lamin A in U20S cells; GAM conjugate): 2.9; S/B 5.0 X (lamin A in U20S cells; GAM conjugate, 5.0 X molar excess): 4.9; S/B 7.5 X (lamin A in U20S cells; GAM conjugate, 7.5 X molar excess): 6.0; S/B 10 X (lamin A in U20S cells; GAM conjugate, 10 X molar excess): 4.9; S/B 15 X (lamin A in U20S cells; GAM conjugate, 15 X molar excess): 4.6; non-specific binding / specificity (in words) (lamin A in U20S cells; GAM conjugates, FIG. 20A-C): a minimal amount of non-specific binding; also recorded: little non-specific binding; Mean Total Intensity, Negative control, 7.5 X (lamin A in U20S cells; no primary antibody, 7.5 X molar excess): 7100; S/B 2.5 X (lamin A in U20S cells; repeat experiment): 9.8; Ex vivo analysis of the vital organs [3]: presence of dye predominantly in the liver with some signal detected in the spleen intestines and lungs; post-experiment surgical exposure: accumulation of dye [3]: accumulation of dye in the liver, bladder, and a region of inflammation in the subcutaneous tissue
